Key:
[1] = tested on: mouse myoblasts (C2C12) myotubes; assay: C2C12 myotube atrophy induced by C26 cell culture medium (HE staining, myotube diameter); type: cell-based; settings: for Myotube atrophy reversal rate (%): 48 h
Description: Carbamo(dithioperoxo)thioate analogs alleviate mouse myoblasts (C2C12) atrophy induced by mouse colon cancer cell (C26).
The diameter measurement method was used to evaluate the diameter of myotubes differentiated from mouse myoblasts (C2C12). The staining method used in the experiment was hematoxylin-eosin staining, referred to as HE staining. The hematoxylin stain is alkaline, positively charged, and easily binds to negatively charged and acidic deoxyribonucleic acid (DNA) in the nucleus with ionic bonding to show blue; while eosin is an acidic dye that dissociates into negatively charged anions in water and easily binds to the positively charged amino groups of proteins in the cytoplasm to show red. The stained cells were placed under a high-magnification microscope to take photos (magnification power: 400), and the diameter of myotubes could be counted using image J software.
The above method allows to evaluate the effect of the drug on the muscle atrophy cell model. The specific method is as follows.
C2C12 cells were seeded in 24-well plates in a culture medium of high-glucose DMEM medium containing 10% FBS and 1% P/S, and placed in a 5% CO2, 37° C. environment. When the cell density reaches 50%˜60%, the culture medium was changed into 2% HS differentiation medium (high-glucose DMEM medium containing 2% HS and 1% P/S); the differentiation medium was changed every 48 h until mature on day 5 or day 6. In addition, C26 cells were inoculated in T75 flasks, and the culture medium was changed into high-glucose DMEM medium containing 10% FBS and 1% P/S, and placed in a 5% CO2, 37° C. environment. While C26 cells (6×10^6 cells/flasks) were passaged, add 20 mL of culture medium to sequentially subculture for 48 h. To obtain the C26 supernatant, centrifuge C26 culture medium at 1000 rpm for 3 min and then at 4000 rpm for 10 min successively. The C26 supermatant and 2% HS differentiation medium were mixed 1:1 (volume ratio) as a muscle atrophy inducing medium. Except for the control group with 2% HS differentiation medium, other each group was added with the equal amounts of muscle atrophy-inducing medium and one group was used as the model group, and the rest groups were used as the experimental groups for drug administration. At the same time, carbamo(dithioperoxo)thioate compounds were added into the cells at the following gradient concentrations.
Wherein, the serial numbers correspond to the numbers of the accompanying figures, that is, FIG. 1-46 correspond to the samples of serial numbers 1-46 in Table 1. μM refers to μmol/L.
Myotube diameter was measured as follows.
After 48 h of action, the myotubes were fixed with fixative solution (anhydrous ethanol:formaldehyde:glacial acetic acid volume ratio=20:2:1) for more than 1 h, stained using hematoxylin-eosin staining method, and placed under a high-magnification microscope to acquire images and counted the diameter of myotubes using image J. The muscle atrophy reversal rate was calculated according to the following equation. Muscle atrophy reversal rate=(Average value of myotubes in drug administration group−Average value of myotubes in model group)/(Average value of myotubes in control group−Average value of myotubes in model group)×100%

3T3-L1 adipocytes = assay: 3T3-L1 adipocyte lipolysis induced by C26 medium (glycerol assay); type: cell-based, mouse; settings: for glycerol content: 48 h, control 287.44 μM, model 441.95 μM
Description: Experimental results of compound 4 alleviating 3T3-L1 adipocytes lipolysis.
Glycerol assay was used to evaluate intracellular lipid content. Glycerol kinase phosphorylates glycerol to glycerol 3-phosphate; glycerol 3-phosphate is oxidized by glycerophosphate oxidase to produce hydrogen peroxide; the chromogenic substrate is converted to benzoquinone imine in the presence of peroxidase, and its optical density value is proportional to the glycerol concentration.
The above methods allow to evaluate the effect of drugs on the fat lipolysis cell model. The methods are as follows:
3T3-L1 cells were seeded in 6-well plates in a culture medium (high-glucose DMEM medium containing 10% FBS and 1% P/S) and placed in a 5% CO2, 37° C. environment. The cells were allowed to grow to 100% confluence and continued to fuse for 3 days to start the differentiation operation. The culture medium for the first differentiation was high-glucose DMEM medium containing 0.5 mM IBMX, […], 1 μM dexamethasone and 10% FBS and 1% P/S, and then differentiated 3T3-L1 adipocytes for 72 h; The culture medium for the second differentiation was high-glucose DMEM medium containing […] and 10% FBS, and 1% P/S, and then differentiated 3T3-L1 adipocytes for 72 h; the culture medium for the third differentiation was high-glucose DMEM medium containing 10% FBS, and 1% P/S, and then differentiated 3T3-L1 for 72 h; After successful differentiation, it was obvious that there were a large number of oil droplets in the cells. In addition, C26 cells were inoculated in T75 flasks in the culture medium (high-glucose DMEM medium containing 10% FBS, and 1% P/S) and placed in a 5% CO2, 37° C. environment. While C26 cells (6×10^6 cells/flask) were passaged, add 15 mL of phenol red-free high-glucose DMEM culture medium to the T75 flask with 100% confluent C26 cells and sequentially subculture for 48 h. To obtain the supernatant, centrifuge C26 culture medium at 1000 rpm for 3 min and at 4000 rpm for 10 min successively, and take the supernatant to obtain the C26 supernatant successively. The C26 supernatant was mixed with phenol red-free high-glucose DMEM medium at 1:1 ratio as a fat lipolysis-inducing medium. Except for the control group with phenol red-free high-glucose DMEM medium, the other each group was added with the same amount of fat lipolysis-inducing liquid; one group was used as the model group, and the rest groups were used as the experimental groups for drug administration. At the same time, compound 4 stock solution was also added into the cells at the following concentrations of 12.5 μM, 25 μM, 50 μM, 100 μM.
The glycerol detection method was performed as follows: after 48 h of action, the glycerol content in the supernatant was detected using the glycerol detection kit from Beijing Applygen Gene Technology Co., Ltd.

[2] = tested on: BALB/c mice bearing C26 tumors; assay: C26 tumor cancer cachexia animal model; type: in vivo, mouse; settings: 5 mg/kg oral gavage (i.g)
Method: The experimental results of cancer cachexia animal models treated with compound 4, by the following methods.
C26 cells were cultured in T75 culture flasks in the culture medium (RPMI-1640 medium containing 10% FBS, and P/S) and placed in a 5% CO2, 37° C. environment. The cells were harvested by centrifugation at 1000 rpm for 3 min, and washed with ice-cold PBS buffer to remove the remaining culture medium and prepared into a cell suspension of 1×10^7 cells/mL. The cell suspension was inoculated into the left and right armpits of BALB/c mice with 1×10^6 cells/mouse for subsequent inoculation. When the tumor volume increased to about […], the tumor was removed and homogenized at 3.5 mL of ice-old saline/g to obtain tumor tissue suspension. The mice to be inoculated were grouped according to their body weight, and the cell suspension was inoculated into the left armpit of BALB/c mice at the amount of 100 μL/mouse. The administration of the drug was started the day after inoculation. Compound 4 was first dissolved in DMSO and then mixed with pre-warmed PBS solution (37° C.) to form a homogeneous and stable solution at a final concentration of 1 mg/mL (3% DMSO+2% anhydrous ethanol+1% polyoxyethylene castor oil). The dose was 5 mg/kg and the route of administration was oral gavage (i.g). The body weight, body temperature, tumor size and food intake of the mice were monitored daily. The mice in the model group were considered to be in the advanced stage of cachexia when they were about 10% weight loss after 16 days. The muscle grip of mice's limbs was measured, and samples of gastrocnemius muscle, epididymal fat and tumor were obtained after the mice were executed by […] and the tissue samples were weighed.
The measurement method of the muscle grasping force is as follows: The researcher holds the mouse steadily with his right hand, puts the mouse on the “YLS-13A rat and mouse grasping force measuring instrument” to let the forelimbs of mouse firmly grasp the grasping plate and uses his left hand to stabilize the grasping plate. To measure the muscle grasping force of the mouse, the researcher slowly releases his left hand from the grasping plate and immediately uses his right hand to pull the mouse's tail backward slowly until the forelimbs are free from the grasping plate. Each mouse is repeated 8 times, and the average value of the 8 times is used as the skeletal muscle strength index of each mouse.
Results and Conclusions: Referring to FIGS. 48 to 58, the three curves in the figures represent the healthy group, the C26 tumor model group and the dosing group (compound 4 group, where compound 4 was administrated at a dose of 5 mg/kg), respectively.

[3] = 25 μM, C26 medium-induced C2C12 myotubes
[4] = 50 μM, C26 medium-induced C2C12 myotubes
[5] = l00 μM, C26 medium-induced C2C12 myotubes
[6] = 12.5 μM, C26 medium-induced C2C12 myotubes
[7] = vs C26 tumor model group, p<0.05

Compound: CCCCCCCCCCCCSSC(=S)N1CCC(O)C1 (stereo not drawn) [Compound 13]
- Myotube atrophy reversal rate (%) [1, 3]: 18.05%
- Myotube atrophy reversal rate (%) [1, 4]: 42.38%

Compound: CCCCCCCCCCCCCCCCCCSSC(=S)N1CCCC1 [Compound 8]
- Myotube atrophy reversal rate (%) [1, 3]: −1.83%
- Myotube atrophy reversal rate (%) [1, 4]: 17.41%
- reversal of myotube atrophy (activity in words) ([1]; C26 medium-induced C2C12 myotubes): lower
- Myotube atrophy reversal rate (%) [1, 5]: 6.10%

Compound: CCCCCCCCCCCCSSC(=S)N1CC2CCCCC2C1 (stereo not drawn) [Compound 12]
- Myotube atrophy reversal rate (%) [1, 3]: 20.85%
- Myotube atrophy reversal rate (%) [1, 4]: 49.43%
- Myotube atrophy reversal rate (%) [1, 5]: 66.73%

Compound: CCCCCCCCCCCCSSC(=S)N1CCCCC1 [Compound 14]
- Myotube atrophy reversal rate (%) [1, 3]: 17.02%
- Myotube atrophy reversal rate (%) [1, 4]: 43.19%

Compound: CCCCCCCCCCCCSSC(=S)N1CCC2(COC2)C1 [Compound 11]
- Myotube atrophy reversal rate (%) [1, 3]: 42.30%
- Myotube atrophy reversal rate (%) [1, 4]: 64.65%

Compound: CCCCCCCCCCCCCCSSC(=S)N1CCCC1 [Compound 6]
- Myotube atrophy reversal rate (%) [1, 3]: 20.41%
- Myotube atrophy reversal rate (%) [1, 4]: 35.98%
- Myotube atrophy reversal rate (%) [1, 5]: 33.80%

Compound: CCCCCCCCCCSSC(=S)N1CCCC1 [Compound 2]
- Myotube atrophy reversal rate (%) [1, 6]: 16.94%
- Myotube atrophy reversal rate (%) [1, 3]: 43.90% (25 μM)
- Myotube atrophy reversal rate (%) [1, 4]: 61.05% (50 μM)

Compound: CCCCCCCCCCCCCCCCSSC(=S)N1CCCC1 [Compound 7]
- Myotube atrophy reversal rate (%) [1, 3]: 41.05%
- Myotube atrophy reversal rate (%) [1, 4]: 28.79%
- Myotube atrophy reversal rate (%) [1, 5]: 43.99%

Compound: CCCCCCCCCCCCSSC(=S)N1CCCC1 [Compound 4]
- Myotube atrophy reversal rate (%) ([1]; 3.125 μM, C26 medium-induced C2C12 myotubes): 37.78%
- Myotube atrophy reversal rate (%) ([1]; 6.25 μM, C26 medium-induced C2C12 myotubes): 54.53%
- cytotoxicity (in words) ([1]; 12.5 μM): non-cytotoxic
- Myotube atrophy reversal rate (%) [1, 6]: 92.83%
- Myotube atrophy reversal rate (%) ([1]; 12.5 μM, C26 medium-induced C2C12 myotubes, listed as compound 4): 92.83%
- glycerol content (3T3-L1 adipocytes; 12.5 μM compound): 379.44 µM
- glycerol content (3T3-L1 adipocytes; 25 μM compound): 347.14 µM
- glycerol content (3T3-L1 adipocytes; 50 μM compound): 313.67 µM
- glycerol content (3T3-L1 adipocytes; 100 μM compound): 310.95 µM
- glycerol released from 3T3-L1 mature adipocytes (in words) (3T3-L1 adipocytes; 12.5-100 μM, C26 cell culture medium induced): concentration-dependent reduction
- cancer cachexia symptoms (weight loss, muscle atrophy, fat loss, body temperature decrease) [2]: alleviate the weight loss, muscle atrophy, fat degradation and body temperature decrease
- body weight with tumor vs C26 tumor model group ([2]; end of experiment, p<0.01): higher than those in the C26 tumor model group
- body weight without tumor vs C26 tumor model group ([2]; end of experiment, p<0.01): higher than those in the C26 tumor model group
- food intake ([2]; vs C26 tumor model group): higher food intake than the C26 tumor model group
- tumor volume / growth of C26 tumors ([2]; vs C26 tumor model group): no significant inhibitory effect
- epididymal fat mass [2, 7]: significantly increase the epididymal fat mass
- gastrocnemius muscle mass [2, 7]: significantly alleviate gastrocnemius muscle atrophy
- muscle grasping force [2, 7]: significantly enhance the muscle grasping force

Compound: CCCCCCCCSSC(=S)N1CCCC1 [Compound 1]
- Myotube atrophy reversal rate (%) [1, 3]: 18.39%
- Myotube atrophy reversal rate (%) [1, 4]: 2.51%
- Myotube atrophy reversal rate (%) [1, 5]: 36.26%

Compound: CCCCCCCCCCCCCSSC(=S)N1CCCC1 [Compound 5]
- Myotube atrophy reversal rate (%) [1, 3]: 23.27%
- Myotube atrophy reversal rate (%) [1, 4]: 40.28%

Compound: CCCCCCCCCCCCSSC(=S)N1CCN(C)CC1 [Compound 16]
- Myotube atrophy reversal rate (%) [1, 3]: 31.39%
- Myotube atrophy reversal rate (%) [1, 4]: 46.75%

Compound: CCCCCCCCCCCCSSC(=S)N1CCOCC1 [Compound 15]
- Myotube atrophy reversal rate (%) [1, 3]: 26.47%
- Myotube atrophy reversal rate (%) [1, 4]: 48.24%

Compound: CCCCCCCCCCCCSSC(=S)N1CCc2ccccc21 [Compound 10]
- Myotube atrophy reversal rate (%) [1, 3]: 10.82%
- Myotube atrophy reversal rate (%) [1, 4]: 25.32%
- Myotube atrophy reversal rate (%) [1, 5]: 45.93%

Compound: CCCCCCCCCCCCSSC(=S)N1CCC1 [Compound 17]
- Myotube atrophy reversal rate (%) [1, 3]: 26.34%
- Myotube atrophy reversal rate (%) [1, 4]: 53.97%

Compound: CCCCCCCCCCCSSC(=S)N1CCCC1 [Compound 3]
- Myotube atrophy reversal rate (%) [1, 3]: 35.76%
- Myotube atrophy reversal rate (%) [1, 4]: 33.40%
- Myotube atrophy reversal rate (%) [1, 5]: 46.11%

Compound: CCCCCCCCCCCCSSC(=S)N1Cc2ccccc2C1 [Compound 9]
- Myotube atrophy reversal rate (%) [1, 3]: 12.22%
- Myotube atrophy reversal rate (%) [1, 4]: 29.24%
- Myotube atrophy reversal rate (%) [1, 5]: 60.06%
